Read-outs that look alike come from different tables or passages of the source.
Key:
[1] = system: dopaminergic neurons in the substantia nigra (SN); assay: 6OHDA intrastriatal injection mouse model of PD, TH+ neuron count in SN; assay type: in vivo; details: 6-OHDA 10 μg/2 μL right striatum, day 7, vs control group (FIG. 10)
Description: In an embodiment, the biological neuroprotective effect of [Chol]2[N1(4)inh]+N1(4)inh+N1(4)inh when administrated via brain intraventricular infusion route was evaluated in an mouse model for PD induced by the intracerebral injection of 6OHDA, and the number of dopaminergic neurons in the substantia nigra counted.
In an embodiment, Male C57BL/6 mice were anesthetized and placed in the digital stereotaxic frame. Once the mouse skull was exposed, and using a digital coordinates system, injection and infusion sites were determined setting the zero at the bregma point. Hereupon, an injection of 6-OHDA (10 μg/2 μL of ascorbic acid 0.1% v/v) was performed in the right striatum (ST) of each animal using the coordinates: medial-lateral (ML): −2 mm; anterior-posterior (AP): 0.6 mm; dorsoventral (DV): −3.0 mm, using a Hamilton syringe at speed of 0.2 μL/min. The delivery of 0.2 mg/kg/day of [Chol]2[N1(4)inh]+N1(4)inh+N1(4)inh was performed as describe above. […]
The results are expressed as a percentage of Saline (Group (1) which are animals exposed only to saline solution) and represented as the mean±SEM of at least 3 independent experiments (n=3-4). […]

in vitro = details: rat
Description: (§2) The data are presented as percentage of control and presented as the mean±SEM of at least five repetitions of three independent experiments (n=3). Statistical analysis was performed using one-way ANOVA (non-parametric analysis), followed by the Kruskal-Wallis test, followed by Dunn's multiple comparison test. **p<0.01 compared to CTR or the group of cells exposed to cholinium chloride only +++p<0.001 compared to 6OHDA.

[2] = system: N27 dopaminergic neuronal cells exposed to MPP+; details: 24 h (FIG. 8)
Description: The data are presented as percentage of control as the mean±SEM of at least five repetitions of three independent experiments (n=3).

[3] = system: male wistar rats exposed to PQ; assay type: in vivo; details: PQ 2.5 mg/kg/day subcutaneous 4 weeks
Description: (§1) In an embodiment, the biological neuroprotective effect of [Chol]2[N1(4)inh]+N1(4)inh+N1(4)inh when administrated via brain intraventricular infusion route was evaluated in a rat model for PD induced by the exposure to a low chronic dose of PQ, through the analysis of the progression of behavior dysfunction. In this model, the animals are exposed to the toxin during 30 days (4 weeks) and then keeped alive during more 30 days to allow the pathology to progress (Total 8 weeks). The administration of [Chol]2[N1(4)inh]+N1(4)inh started after the first 30 exposure to PQ, via brain intraventricle or intranasal route and lasted the second 30 days. Animals were euthanized at week 8.
In an embodiment, male wistar rats 8-12 week-old were housed in a temperature/humidity-controlled environment under 12 h light/dark cycle with free access to water and food and subjected to subcutaneous chronic administration of PQ, that was carried out using osmotic minipumps (Alzet Durect, Cupertino, CA) at a dose of 2.5 mg/kg/day with a fluid delivery rate of 0.25 μL/hr for a period of four weeks (Alzet model 2004, large pumps). Control groups were implanted with minipump filled with sterile saline, the vehicle used to dissolve PQ. […] Once the rat skull was exposed and, using a digital coordinates system, the infusion sites were determined setting the zero at the bregma point. […] To evaluate the neuroprotective function of the IL-based formulation when infused in brain ventricle, behavior function was evaluated. Motor coordination, balance and grip strength were analyzed using a rat rotarod apparatus model 47700 (Ugo Basile, Comerio, Italy). […] The training was performed in 2 consecutive days, on each day 4 test trials were assessed, each lasting 5 min. […] The rotarod test was performed under an accelerating protocol (4-40 RPM) for 5 min, and the latency to fall was recorded using a specific software. […]

[4] = system: male wistar rats exposed to PQ; assay type: in vivo; details: PQ 2.5 mg/kg/day subcutaneous 4 weeks, week 8, vs control group (FIG. 22)
Description: as §1, with “via intranasal” for “via brain intraventricular infusion”, “in” for “in a”, “of PQ and” for “of PQ,”
In an embodiment, male wistar rats 8-12 week-old subjected to subcutaneous chronic administration of PQ, that was carried out using osmotic minipumps (Alzet Durect, Cupertino, CA) at a dose of 2.5 mg/kg/day with a fluid delivery rate of 0.25 μL/hr for a period of four weeks (Alzet model 2004, large pumps). […] To evaluate the neuroprotective function of the IL-based formulation when administrated via intranasal route, behavior function was evaluated. Motor coordination, balance and grip strength were analyzed using a rat rotarod apparatus model 47700 (Ugo Basile, Comerio, Italy). […] The training was performed in 2 consecutive days, on each day 4 test trials were assessed, each lasting 5 min. […]

[5] = Afonso 2017, MSc thesis; cited from earlier work
dopaminergic neurons = details: PD models; Afonso 2017; cited from earlier work
[6] = system: N27 dopaminergic neuronal cells exposed to 6OHDA; details: 20 μM pretreatment 2.5 h before 50 μM 6OHDA, 24 h (FIG. 7)
Description: as §2

**Q.** Which “reduction in the number of SN dopaminergic neurons” value [1] does the source give for NCCc1cc(O)c(O)cc1O [6OHDA, 6-hydroxydopamine] here?
**A.** Its value is 45%.

**Q.** What about the cytotoxicity at 24 h, 50 µM (in vitro) of the same molecule?
**A.** Its cytotoxicity at 24 h, 50 µM is 45%.

**Q.** Which “loss of N27 cells viability” value ([2]; 10 μM MPP+) does the source give for C[n+]1ccc(-c2ccccc2)cc1 [MPP+, 1-methyl-4-phenylpyridinium] here?
**A.** Its value is 45%.

**Q.** Which “reduction in the distance travelled (open-field)” value ([3]; week 8, vs control (FIG. 20)) does the source give for C[n+]1ccc(-c2cc[n+](C)cc2)cc1 [PQ, paraquat] here?
**A.** Its value is 55%.

**Q.** And the “reduction of speed (open-field)” value ([3]; week 8, vs control (FIG. 21))?
**A.** The value was 50%.

**Q.** And the “reduction in the latency to fall (rotarod)” value ([3]; week 8, vs control group (FIG. 19))?
**A.** Its value is 43%.

**Q.** What about the “reduction in the latency to fall (rotarod)” value [4] of the same molecule?
**A.** Its value is 47%.

**Q.** What does the source list for COc1cc(C(C)=O)ccc1[O-].C[N+](C)(C)CCO [[Chol][Apo], cholinium apocynate]?
**A.** increase in water solubility versus Apo [5]: 50 fold; 6OHDA-induced toxicity in dopaminergic neurons (dopaminergic neurons): significant reduction

**Q.** Which “prevention of 6OHDA-induced neurotoxicity (cell viability)” value [6] does the source give for C[N+](C)(C)CCO.[Cl-] [cholinium chloride] here?
**A.** The value was “not prevented”.

**Q.** What about the “prevention of MPP+ dopaminergic neurotoxicity (cell viability)” value ([2]; 20 μM pretreatment 2.5 h before 10 μM MPP+) of the same molecule?
**A.** The value was “did not exert any protective effect”.

— patent publication US12514845B2, “Ionic-liquid-based formulations for the prevention or treatment of neurological diseases” (Universidade De Aveiro, priority 2022, dated 2026)
